Our source for the Kd values is ChEMBL document CHEMBL1153154, “A single step purification for autolytic zinc proteinases” (Bioorg Med Chem Lett, 2010).

For assay [1], the target named is T1, Stromelysin-1 (Homo sapiens, UniProt P08254). Kind of assay: Binding affinity to stromelysin-1 catalytic domain.
Assay [2] has as its target T1, Stromelysin-1. Kind of assay: Binding affinity to stromelysin-1 catalytic domain expressed in Escherichia coli BL21 (DE3) by isothermal titration […]. In general terms: In ITC the heat of successive injections is recorded.

In general, Kd refers to the equilibrium constant for the complex coming apart. A low value points to a tighter complex.

T1 sequence (P08254 whole entry, the tested form may be a part): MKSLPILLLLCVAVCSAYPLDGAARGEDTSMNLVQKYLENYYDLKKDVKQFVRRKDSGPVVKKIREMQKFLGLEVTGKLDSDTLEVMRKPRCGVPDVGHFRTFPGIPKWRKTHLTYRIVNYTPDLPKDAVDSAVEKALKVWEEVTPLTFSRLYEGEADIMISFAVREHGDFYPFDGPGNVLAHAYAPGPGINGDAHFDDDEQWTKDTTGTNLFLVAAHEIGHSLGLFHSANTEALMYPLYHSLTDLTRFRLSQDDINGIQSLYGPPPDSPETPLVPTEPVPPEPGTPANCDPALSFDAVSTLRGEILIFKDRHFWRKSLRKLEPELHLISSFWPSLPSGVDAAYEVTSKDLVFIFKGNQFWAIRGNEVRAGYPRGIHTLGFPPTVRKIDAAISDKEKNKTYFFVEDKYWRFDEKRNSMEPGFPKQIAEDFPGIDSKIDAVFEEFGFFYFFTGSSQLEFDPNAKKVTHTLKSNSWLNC

For the compound `COc1ccc(S(=O)(=O)N[C@@H](C(=O)NO)C(C)C)cc1`, the Kd was 113 nM at Stromelysin-1 [1] and 43 nM on Stromelysin-1 [2].
`N#Cc1ccc(-c2ccc(OCCC(=O)NO)cc2)cc1`: the Kd on Stromelysin-1 [1] turned out to be 100 nM; on Stromelysin-1 [2], 110 nM.
As to `N#Cc1ccc(-c2ccc(OCCCCC(=O)NO)cc2)cc1`, the Kd on Stromelysin-1 [1] is 11000 nM; on Stromelysin-1 [2] it was 17000 nM.
